One test deals with H1299 cell line. The test is described as follows: In vitro antiproliferation of H1299 cells (MTT method). Format: cell-based. As to conditions: Homo sapiens, NCI-H1299, 72 h, means ± SD from three determinations. On the procedure:
Then, some representative compounds were picked out to evaluate their antiproliferative activity (H1299 cell line) by the MTT method (Table 4).
2 × 10^3 cells were seeded in a 96-well plate before starting the assay and they were cultured at 37 °C. After seeding for 24 h, cells were treated with inhibitors with a specific concentration and incubated at 37 °C for 72 h, followed by incubation with 0.5 mg mL^−1 MTT for 4 h at 37 °C. Then, 200 µL of DMSO was added and the absorbance was measured at 570 nm.
For orientation: Tetrazolium assays rely on reduction of a dye to a coloured formazan, in cell work by metabolically active cells.

Another test concerns enolase, PK, LDH. The test is described as follows: Counter-screen assay (coupled enzymes without PGAM1, 2PG as substrate). The format is biochemical. How it is done: The counter-screen assay was then performed to exclude the off-target inhibition against other enzymes in the in vitro assay (Table 3).
The test system of another test is H1299 cell. As to conditions: Figure 1; ref 14 (PGMI-004A), ref 20 (EGCG); cited from earlier work.
The subject of another test is PGAM1. As to conditions: Figure 1; ref 14 (PGMI-004A), ref 20 (EGCG); cited from earlier work.

As usually defined, the IC50 is the concentration that inhibits the measured activity by half.

For `O=c1c2cc(O)ccc2oc2cc(NS(=O)(=O)c3ccc(-c4ccccc4)cc3)cc(O)c12` [Compound 15i, N-(1,7-Dihydroxy-9-oxo-9H-xanthen-3-yl)-[1,1′-biphenyl]-4-sulfonamide], the IC50 with H1299 cell line was found to be 30.6 ± 2.4 µM. For the same compound, the “Counter-Screen Assay (5 μM), inhibition ratio against the other three enzymes” value in the test on enolase, PK, LDH is 10%.
For `O=c1c2c(O)cccc2oc2cc(NS(=O)(=O)c3ccc(C4CCCCC4)cc3)cc(O)c12` [Compound 9l, 4-Cyclohexyl-N-(1,8-dihydroxy-9-oxo-9H-xanthen-3-yl)benzenesulfonamide], in that order: 18.5 ± 2.3 µM and 15%.
In turn, `O=c1c2c(O)cccc2oc2cc(NS(=O)(=O)c3ccc(-c4ccccc4)cc3)cc(O)c12` [Compound 9m, N-(1,8-Dihydroxy-9-oxo-9H-xanthen-3-yl)-[1,1′-biphenyl]-4-sulfonamide] gave a concentration for half-maximal inhibition (IC50) in the test with H1299 cell line of 20.1 ± 1.4 µM. Further, the “Counter-Screen Assay (5 μM), inhibition ratio against the other three enzymes” value with enolase, PK, LDH is 9%.
Take `Cc1ccc2oc3cc(NS(=O)(=O)c4ccc(-c5ccccc5)cc4)cc(O)c3c(=O)c2c1` [Compound 15e, N-(1-Hydroxy-7-methyl-9-oxo-9H-xanthen-3-yl)-[1,1′-biphenyl]-4-sulfonamide]: in the test with enolase, PK, LDH, the “Counter-Screen Assay (5 μM), inhibition ratio against the other three enzymes” value came out at 7%.
Same read-out and setting: to `O=c1c2c(O)cccc2oc2cc(NS(=O)(=O)c3cccc4ccccc34)cc(O)c12` [Compound 9n, N-(1,8-Dihydroxy-9-oxo-9H-xanthen-3-yl)naphthalene-1-sulfonamide] belongs 13%.
`CC(=O)Oc1ccc2oc3cc(NS(=O)(=O)c4ccc(-c5ccccc5)cc4)cc(O)c3c(=O)c2c1` [Compound 15j, 6-([1,1′-Biphenyl]-4-sulfonamido)-8-hydroxy-9-oxo-9H-xanthen-2-yl acetate] came in with an IC50 in the test with H1299 cell line of 31.1 ± 4.5 µM. Also, the “Counter-Screen Assay (5 μM), inhibition ratio against the other three enzymes” value in the test with enolase, PK, LDH is given as 7%.
For `CC(C)(C)c1ccc(S(=O)(=O)Nc2cc(O)c3c(=O)c4c(O)cccc4oc3c2)cc1` [Compound 9k, 4-(tert-Butyl)-N-(1,8-dihydroxy-9-oxo-9H-xanthen-3-yl)benzenesulfonamide], in that order: 21.1 ± 1.7 µM and 12%.
The like results for `COc1cccc2c(=O)c3c(O)cc(NS(=O)(=O)c4ccc(-c5ccccc5)cc4)cc3oc12` [Compound 15b, N-(1-Hydroxy-5-methoxy-9-oxo-9H-xanthen-3-yl)-[1,1′-biphenyl]-4-sulfonamide] were, in that order, 42.7 ± 3.9 µM and 13%.
The like results for `O=c1c2cc(Cl)ccc2oc2cc(NS(=O)(=O)c3ccc(-c4ccccc4)cc3)cc(O)c12` [Compound 15f, N-(7-Chloro-1-hydroxy-9-oxo-9H-xanthen-3-yl)-[1,1′-biphenyl]-4-sulfonamide] were, in that order, 32.7 ± 0.9 µM and 8%.
In turn, `O=c1c2cc([N+](=O)[O-])ccc2oc2cc(NS(=O)(=O)c3ccc(-c4ccccc4)cc3)cc(O)c12` [Compound 15h, N-(1-Hydroxy-7-nitro-9-oxo-9H-xanthen-3-yl)-[1,1′-biphenyl]-4-sulfonamide] displayed an IC50 with H1299 cell line of 33.8 ± 6.1 µM. Further, the “Counter-Screen Assay (5 μM), inhibition ratio against the other three enzymes” value with enolase, PK, LDH came to 5%.
For `O=C(O[C@@H]1Cc2c(O)cc(O)cc2O[C@@H]1c1cc(O)c(O)c(O)c1)c1cc(O)c(O)c(O)c1` [EGCG, epigallocatechin gallate], the IC50 with H1299 cell is more than 80 µM; in the test on PGAM1, 490 nM.
Regarding `O=C1c2ccccc2C(=O)c2c1cc(S(=O)(=O)Nc1ccc(C(F)(F)F)cc1)c(O)c2O` [PGMI-004A, reference compound], the IC50 with H1299 cell line is 26 ± 2.1 µM; in the test with H1299 cell, 25.6 µM.
`Nc1ccn([C@@H]2O[C@H](CO)[C@@H](O)C2(F)F)c(=O)n1` [Gemcitabine, reference compound]: the IC50 in the test with H1299 cell line was found to be 0.193 µM.
The compound `COc1ccc2oc3cc(NS(=O)(=O)c4ccc(-c5ccccc5)cc4)cc(O)c3c(=O)c2c1` [Compound 15d, N-(1-Hydroxy-7-methoxy-9-oxo-9H-xanthen-3-yl)-[1,1′-biphenyl]-4-sulfonamide] displayed an IC50 in the test with H1299 cell line of 19.6 ± 2.2 µM. The “Counter-Screen Assay (5 μM), inhibition ratio against the other three enzymes” value in the test on enolase, PK, LDH came to 6%.
The like results for `O=c1c2c(O)cccc2oc2cc(NS(=O)(=O)c3cccc(Cl)c3F)cc(O)c12` [Compound 9h, 3-Chloro-N-(1,8-dihydroxy-9-oxo-9H-xanthen-3-yl)-2-fluorobenzenesulfonamide] were, in that order, 14.1 ± 1.9 µM and 12%.
Turning to `Cc1cccc2c(=O)c3c(O)cc(NS(=O)(=O)c4ccc(-c5ccccc5)cc4)cc3oc12` [Compound 15c, N-(1-Hydroxy-5-methyl-9-oxo-9H-xanthen-3-yl)-[1,1′-biphenyl]-4-sulfonamide], the “Counter-Screen Assay (5 μM), inhibition ratio against the other three enzymes” value in the test with enolase, PK, LDH was 7%.

The record behind these values is publication PMC6100356, “The Design and Synthesis of N-Xanthone Benzenesulfonamides as Novel Phosphoglycerate Mutase 1 (PGAM1) Inhibitors” (Molecules : A Journal of Synthetic Chemistry and Natural …, 2018).
